Assay results published in patent US4160026A (priority 1976, dated 1979).

Columns and labels:
cell-mediated immunity = test: Cell-mediated immunity, delayed hypersensitivity (picryl chloride) in Sarcoma 180-inoculated mice; format: in vivo, ICR-JCL strain mice; conditions: 75 mg/kg
Protocol: The tests were carried out by the following procedure: groups of ICR-JCL strain mice (six male mice per group, average body weight 31.9±3 g.) were inoculated with the ascites tumor "Sarcoma 180" (10^6 cells). 24 Hours after the inoculation of the tumor cells, each of the drug samples to be tested was subcutaneously administered and a known anti-tumor agent (cyclophosphamide) was intraperitoneally administered to the inoculated mice. Two days after the inoculation, an ethanolic solution of 5% picryl chloride was applied onto the hair-shaved abdomen of the mice to establish the sensitization. Subsequently, each drug sample under test was subcutaneously administered once a day for the successive four days. 4 Days after the inoculation, cyclophosphamide was again administered. Nine days after the inoculation, a solution of 1% picryl chloride in olive oil was challenged onto the two sides of both ears of the mice to establish the secondary sensitization. 24 Hours after the secondary sensitization, the degree (%) of increase in thickness of the ears was calculated for the test mice. The extent of the swelling which serves as a measure of stimulating cell-mediated immunity involved can be evaluated from the percentage increase in the ear thickness.

various bacteria = test: Antibacterial activity with combined use of maltose or maltodextrin; format: cell-based; conditions: under the above-mentioned testing conditions
Protocol: These paper discs were placed on an upper plate layers of the known mycin-assay incubation medium comprising 0.5% peptone, 0.3% meat extract and 1.5% agar (pH 6) which contained the test microorganism to be incubated therein and which was laid over the lower layer of agar medium in the assaying dish. The incubation was made at a temperature of 37° C. overnight, and subsequently the diameter of the inhibition zones formed around the paper discs was measured. […] These tests were repeated in the same manner as above but with additional incorporation of 1.25 mg/cc of maltotriose into the upper plate layer of the mycin-assay incubation medium.

Solubility = format: physicochemical
Sarcoma 180 = test: Solid tumor of Sarcoma 180, treatment after inoculation; format: in vivo, ICR-strain mice; conditions: 2 mg/kg, i.p., 5 days after inoculation
Protocol: In a separate experiment, male ICR-strain mice (five in each group with an average body weight of 20±2 g) were inoculated in the flank with 7×10^6 live tumor cells of Sarcoma 180 in 0.05 ml. After 24 hours, each group of mice was treated by intraperitoneal injection of 0.1 ml. of saline or sample dissolved in saline for 5 consecutive days. Seven days after the inoculation, all mice were sacrificed and the primary subcutaneous tumor excised and weighed.
In the above table, degree (%) of inhibition to the growth of tumor was calculated according to the following equation: [formula]

Row | SMILES | Solubility (Solubility; in acetone) | Solubility (Solubility; in ethanol) | Solubility (Solubility; in methanol) | Solubility (Solubility; in water) | further results
1 | O=P1(N(CCCl)CCCl)NCCCO1 (stereo not shown) [Cyclophosphamide, N,N-bis (2-chloroethyl)tetrahydro-2H-1,3,2-oxazophosphorin-2-amine-2-oxide] | – | – | – | – | Degree of increase in ear thickness (cell-mediated immunity): 4.0 ± 2.60 ×10^-3 cm; percentage increase (cell-mediated immunity; untreated = 100.0): 51.9%
2 | OC[C@H]1O[C@H](O[C@H]2[C@H](O)[C@@H](O)[C@@H](O[C@H]3[C@H](O)[C@@H](O)C(O)O[C@@H]3CO)O[C@@H]2CO)[C@H](O)[C@@H](O)[C@@H]1O (stereo partly shown) [maltotriose] | – | – | – | – | Antibacterial activity of maltodextrins alone (various bacteria): do not exhibit any antibacterial activity
3 | OC[C@H]1O[C@H](O[C@H]2[C@H](O)[C@@H](O)[C@@H](O[C@H]3[C@H](O)[C@@H](O)[C@@H](O[C@H]4[C@H](O)[C@@H](O)[C@@H](O[C@H]5[C@H](O)[C@@H](O)C(O)O[C@@H]5CO)O[C@@H]4CO)O[C@@H]3CO)O[C@@H]2CO)[C@H](O)[C@@H](O)[C@@H]1O (stereo partly shown) [maltopentaose] | not soluble | not soluble | sparingly soluble | readily soluble | –
4 | OC[C@H]1O[C@H](O[C@H]2[C@H](O)[C@@H](O)[C@@H](O[C@H]3[C@H](O)[C@@H](O)[C@@H](O[C@H]4[C@H](O)[C@@H](O)[C@@H](O[C@H]5[C@H](O)[C@@H](O)[C@@H](O[C@H]6[C@H](O)[C@@H](O)C(O)O[C@@H]6CO)O[C@@H]5CO)O[C@@H]4CO)O[C@@H]3CO)O[C@@H]2CO)[C@H](O)[C@@H](O)[C@@H]1O (stereo partly shown) [maltohexaose] | not soluble | not soluble | sparingly soluble | readily soluble | –
5 | CO[C@@]12[C@H](COC(N)=O)C3=C(C(=O)C(C)=C(N)C3=O)N1C[C@@H]1N[C@@H]12 [Mitomycin C, mitomycin C] | – | – | – | – | Degree (%) of inhibition to tumor growth (Sarcoma 180): 45%; Tumor weight (Sarcoma 180): 0.43 g
